Assays:
stage IVB ovarian cancer = settings: from July 2018, bicarbonate continued, before endoxan
[1] = Change in pH of urine after citrate salt or sodium bicarbonate in a person with acidic urine (Example 1)
Procedure: A citrate salt was administered to a person with acidic urine in accordance with the following dosage regimen, and a change in pH value of urine was then measured over time.
(1) A potassium citrate•sodium citrate hydrate 500 mg tablet (Uralyt Tablet (manufactured by Nippon Chemiphar Co., Ltd.)) is administered at 6 tablets (3 g) once a day after a meal.

[2] = 3 g once a day, compared to potassium citrate•sodium citrate hydrate

With `O=C([O-])O.[Na+]` [sodium salt of hydrogencarbonate ions, sodium bicarbonate] the “value of CA125” value (stage IVB ovarian cancer) was 199, the side effect observed ([1]; 3 g once a day after a meal) was “the patient often burped” and the “rate of alkalization of urine” value [1, 2] was “higher”. For the same compound, the “rate of urine turning acidic again” value [1, 2] was “higher”, the “time during which the urine was kept alkaline” value [1, 2] was “shorter” and the “pH of urine / ability to keep the urine alkaline” value ([1]; person with acidic urine, 6 tablets (3 g) orally once a day after a meal) was “poorer ability to keep the urine alkaline”.

From patent US11246847B2, “Anticancer drug effect enhancer” (Delta-Fly Pharma, Inc., priority 2019, dated 2022)
